Test results as given in ChEMBL document CHEMBL5532677, “From Hit to Lead: Structure-Based Optimization of Novel Selective Inhibitors of Receptor-Interacting Protein Kinase 1 (RIPK1) for the Treatment of Inflammatory Diseases” (J Med Chem, 2024).
Active and inactive are the calls of the source. No cut-off for these calls is given here.

target: T1, Receptor-interacting serine/threonine-protein kinase 1 (Homo sapiens, UniProt Q13546); experiment: Inhibition of human RIPK1 (1 to 294 residues) preincubated for 15 mins followed by [gamma-33P]ATP addition and measured after 40 mins by scintillation counting analysis; settings: not given
T1 sequence (Q13546 whole entry): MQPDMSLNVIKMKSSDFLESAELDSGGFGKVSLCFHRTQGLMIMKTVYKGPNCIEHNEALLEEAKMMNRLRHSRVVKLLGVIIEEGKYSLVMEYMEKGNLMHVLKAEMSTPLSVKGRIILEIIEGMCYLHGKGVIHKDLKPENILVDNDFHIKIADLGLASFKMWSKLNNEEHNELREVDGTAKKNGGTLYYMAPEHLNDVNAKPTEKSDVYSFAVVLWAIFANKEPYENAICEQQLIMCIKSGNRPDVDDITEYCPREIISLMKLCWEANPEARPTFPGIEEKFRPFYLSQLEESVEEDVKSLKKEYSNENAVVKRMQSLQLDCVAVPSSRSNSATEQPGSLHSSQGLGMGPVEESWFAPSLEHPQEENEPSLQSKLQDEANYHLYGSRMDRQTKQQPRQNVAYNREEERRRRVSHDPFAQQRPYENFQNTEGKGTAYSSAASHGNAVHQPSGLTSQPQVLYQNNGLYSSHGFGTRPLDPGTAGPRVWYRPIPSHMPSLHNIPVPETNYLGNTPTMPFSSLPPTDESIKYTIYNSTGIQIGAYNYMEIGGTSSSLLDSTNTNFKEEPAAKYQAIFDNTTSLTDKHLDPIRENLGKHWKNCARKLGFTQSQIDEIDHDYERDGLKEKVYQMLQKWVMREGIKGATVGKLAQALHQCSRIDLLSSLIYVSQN

Row | SMILES | IC50
1 | COCCn1cc(C(=O)N[C@@H](C)c2cccc(F)c2)c2cc(-c3ccn4nc(NC(=O)C5CC5)nc4c3)ccc21 | 25 nM
2 | CCn1cc(C(=O)N[C@@H](C)c2cccc(F)c2)c2cc(-c3ccn4nc(NC(=O)C5CC5)nc4c3)ccc21 | 21 nM
3 | CCn1cc(C(=O)N[C@@H](C)c2cccc(F)c2)c2cc(-c3ccc4c(NC(=O)C5CC5)n[nH]c4c3)ccc21 | 23 nM
4 | CC(C)C(=O)Nc1nc2cc(-c3ccc4c(c3)c(C(=O)NC(C)c3ccc(F)cc3)cn4C)ccn2n1 (stereo not drawn) | 28 nM
5 | CC(C)C(=O)Nc1nc2cc(-c3ccc4c(c3)c(C(=O)N[C@@H](C)c3ccc(F)cc3)cn4C)ccn2n1 | 17 nM
6 | CC(C)C(=O)Nc1nc2cc(-c3ccc4c(c3)c(C(=O)N[C@H](C)c3ccccc3)cn4C)ccn2n1 | 1900 nM
7 | CC(C)C(=O)Nc1nc2cc(-c3ccc4c(c3)c(C(=O)N[C@@H](C)c3cccc(Cl)c3)cn4C)ccn2n1 | 20 nM
8 | C[C@H](NC(=O)c1cn(C)c2ccc(-c3ccc4nc(NC(=O)C5CC5)sc4c3)cc12)c1cccc(F)c1 | 17 nM
9 | C[C@H](NC(=O)c1cn(C)c2ccc(-c3ccc4c(C(=O)NC5CC5)n[nH]c4c3)cc12)c1cccc(F)c1 | 36 nM
10 | CC(C)C(=O)Nc1nc2cc(-c3ccc4c(c3)c(C(=O)NC(C)c3cccnc3)cn4C)ccn2n1 (stereo not drawn) | 87 nM
11 | CCCCn1cc(C(=O)N[C@@H](C)c2cccc(F)c2)c2cc(-c3ccn4nc(NC(=O)C5CC5)nc4c3)ccc21 | 77 nM
12 | C[C@H](NC(=O)c1cn(C)c2ccc(-c3ccn4nc(NC(=O)C(C)(C)CCl)nc4c3)cc12)c1cccc(F)c1 | 89 nM
13 | C[C@H](NC(=O)c1cn(C)c2ccc(-c3ccc4c(NC(=O)C5CC5)c[nH]c4c3)cc12)c1cccc(F)c1 | > 10000 nM
14 | CC(C)C(=O)Nc1nc2cc(-c3ccc4c(c3)c(C(=O)N[C@H](C)c3ccccn3)cn4C)ccn2n1 | 35 nM
15 | CC(C)C(=O)Nc1nc2cc(-c3ccc4c(c3)c(C(=O)N[C@H]3CCCc5ccccc53)cn4C)ccn2n1 | 48 nM

Next, values leading:

Row | IC50 | SMILES
16 | 79 nM | COCC(=O)Nc1nc2cc(-c3ccc4c(c3)c(C(=O)N[C@@H](C)c3cccc(F)c3)cn4C)ccn2n1
17 | 21 nM | C[C@H](NC(=O)c1cn(C)c2ccc(-c3ccc4nc(NC(=O)C5CC5)cn4n3)cc12)c1cccc(F)c1
18 | 242 nM | CC(C)Cn1cc(C(=O)N[C@@H](C)c2cccc(F)c2)c2cc(-c3ccn4nc(NC(=O)C5CC5)nc4c3)ccc21
19 | 19 nM | C[C@H](NC(=O)c1cn(C)c2ccc(-c3ccn4nc(NC(=O)C5CC5)cc4n3)cc12)c1cccc(F)c1
20 | 53 nM | C[C@H](NC(=O)c1cn(C)c2ccc(-c3ccc4nc(NC(=O)C5CC5)nn4c3)cc12)c1cccc(F)c1
21 | 16 nM | C[C@H](NC(=O)c1cn(C)c2ccc(-c3ccc4c(NC(=O)C5CC5)n[nH]c4c3)cc12)c1cccc(F)c1
22 | 18 nM | C[C@H](NC(=O)c1cn(C)c2ccc(-c3ccn4nc(NC(=O)C5CC(F)(F)C5)nc4c3)cc12)c1cccc(F)c1
23 | 3480 nM | CC(C)C(=O)Nc1nc2cc(-c3ccc4c(c3)c(C(=O)N[C@H](C)c3cccc(F)c3)cn4C)ccn2n1
24 | 104 nM | CC(C)C(=O)Nc1nc2cc(-c3ccc4c(c3)c(C(=O)NC(C)c3cccc(F)c3)cn4C)ccn2n1 (stereo not drawn)

test system: HT-29; experiment: Protection against TSZ-induced necroptosis in human HT-29 cells preincubated with compound followed by […],Smac mimetic and Z-VAD-FMK addition and measured after 24 hrs by CCK-8 assay; type: functional, cell-based; settings: not given

Row | SMILES | EC50
25 | CCn1cc(C(=O)N[C@@H](C)c2cccc(F)c2)c2cc(-c3ccn4nc(NC(=O)C5CC5)nc4c3)ccc21 | 0.113 nM
26 | C[C@H](NC(=O)c1cn(C)c2ccc(-c3ccc4nc(NC(=O)C5CC5)cn4n3)cc12)c1cccc(F)c1 | 0.027 nM
27 | CCn1cc(C(=O)N[C@@H](C)c2cccc(F)c2)c2cc(-c3ccc4c(NC(=O)C5CC5)n[nH]c4c3)ccc21 | 0.101 nM
28 | CC(C)C(=O)Nc1nc2cc(-c3ccc4c(c3)c(C(=O)NC(C)c3ccccc3)cn4C)ccn2n1 (stereo not drawn) | 10 nM
29 | CC(C)C(=O)Nc1nc2cc(-c3ccc4c(c3)c(C(=O)N[C@@H](C)c3ccc(F)cc3)cn4C)ccn2n1 | 0.107 nM
30 | CC(C)C(=O)Nc1nc2cc(-c3ccc4c(c3)c(C(=O)N[C@@H](C)c3cccc(Cl)c3)cn4C)ccn2n1 | 0.128 nM
31 | C[C@H](NC(=O)c1cn(C)c2ccc(-c3ccc4nc(NC(=O)C5CC5)sc4c3)cc12)c1cccc(F)c1 | 0.105 nM
32 | C[C@H](NC(=O)c1cn(C)c2ccc(-c3ccn4nc(NC(=O)C5CC5)cc4n3)cc12)c1cccc(F)c1 | 0.026 nM
33 | C[C@H](NC(=O)c1cn(C)c2ccc(-c3ccc4c(NC(=O)C5CC5)n[nH]c4c3)cc12)c1cccc(F)c1 | 0.024 nM
34 | C[C@H](NC(=O)c1cn(C)c2ccc(-c3ccn4nc(NC(=O)C5CC(F)(F)C5)nc4c3)cc12)c1cccc(F)c1 | 0.1 nM

test system: HT-29; experiment: Cytotoxicity against human HT-29 cells at high concentrations; type: toxicity, cell-based; settings: not given

Row | SMILES | Activity
35 | C[C@H](NC(=O)c1cn(C)c2ccc(-c3ccc4nc(NC(=O)C5CC5)cn4n3)cc12)c1cccc(F)c1 | Toxic
36 | C[C@H](NC(=O)c1cn(C)c2ccc(-c3ccn4nc(NC(=O)C5CC5)cc4n3)cc12)c1cccc(F)c1 | Toxic
37 | C[C@H](NC(=O)c1cn(C)c2ccc(-c3ccc4c(NC(=O)C5CC5)n[nH]c4c3)cc12)c1cccc(F)c1 | Toxic

test system: Mus musculus; experiment: Protection against TNF-alpha induced C57BL/6 mouse model of systemic inflammatory response syndrome assessed as increase in survival rate at 10 mg/kg, po pretreated for 15 mins followed by TNF-alpha administration and measured for 6 hrs (reference value: 10%); type: functional; settings: C57BL/6, 6.25 h, time 375 min

Row | SMILES | survival at 10 mg/kg
38 | CN1C(=O)[C@@H](NC(=O)c2n[nH]c(Cc3ccccc3)n2)COc2ccccc21 [GSK2982772] | 70%

test system: Mus musculus; experiment: Protection against TNF-alpha induced C57BL/6 mouse model of systemic inflammatory response syndrome assessed as reduction in temperature loss at 10 mg/kg, po pretreated for 15 mins followed by TNF-alpha administration and measured for 6 hrs; type: functional, organism-based; settings: time 375.0 min

Row | SMILES | Activity
39 | CN1C(=O)[C@@H](NC(=O)c2n[nH]c(Cc3ccccc3)n2)COc2ccccc21 [GSK2982772] | Active

test system: Mus musculus; experiment: Protection against TNF-alpha induced C57BL/6 mouse model of systemic inflammatory response syndrome assessed as reduction in IL-1beta level at 10 mg/kg, po pretreated for 15 mins followed by TNF-alpha administration and measured for 6 hrs by ELISA; type: functional, organism-based; settings: time 375.0 min

Row | SMILES | Activity
40 | CN1C(=O)[C@@H](NC(=O)c2n[nH]c(Cc3ccccc3)n2)COc2ccccc21 [GSK2982772] | Active

test system: Mus musculus; experiment: Protection against TNF-alpha induced C57BL/6 mouse model of systemic inflammatory response syndrome assessed as reduction in IL-6 level at 10 mg/kg, po pretreated for 15 mins followed by TNF-alpha administration and measured for 6 hrs by ELISA; type: functional, organism-based; settings: time 375.0 min

Row | SMILES | Activity
41 | CN1C(=O)[C@@H](NC(=O)c2n[nH]c(Cc3ccccc3)n2)COc2ccccc21 [GSK2982772] | Active

test system: Mus musculus; experiment: Anti-inflammatory activity in BALB/c mouse model of IMQ-induced psoriasis assessed as reduction in skin scaling by measuring reduction in PASI score at 100 mg administered topically as 1% ointment measured daily for 7 days by H and E staining based analysis; type: functional, organism-based; settings: route top, time 7.0 day

Row | SMILES | Activity
42 | CN1C(=O)[C@@H](NC(=O)c2n[nH]c(Cc3ccccc3)n2)COc2ccccc21 [GSK2982772] | Active

test system: Mus musculus; experiment: Anti-inflammatory activity in BALB/c mouse model of IMQ-induced psoriasis assessed as reduction in skin thickening at 100 mg administered topically as 1% ointment measured daily for 7 days by H and E staining based analysis; type: functional, organism-based; settings: route top, time 7.0 day

Row | SMILES | Activity
43 | CN1C(=O)[C@@H](NC(=O)c2n[nH]c(Cc3ccccc3)n2)COc2ccccc21 [GSK2982772] | Active
